In patent US10220025B1, “Self-emulsifying formulation of CARP-1 functional mimetics” (Florida A&M University, priority 2016, dated 2019):
Entries after “also recorded” stand apart in the source; their conditions may differ. Read-outs that look alike come from different tables or passages of the source. Values belong to the compound of their own block, whether it stands above or below them.

Columns and labels:
TNBC and NSCLC cells = conditions: cited from earlier work
[1] = system: MDA-MB-468 TNBC cells, wild type; assay: MTT viability assay, parental MDA-MB-468; format: cell-based, human; conditions: for inhibition of viability compared with CFM-4: 20 μM, 24 h, FIG. 3A
Description: (§2) In vitro inhibition of cell growth was assessed by MTT (3-[4, 5-dimethyltiazol-2-yl]-2.5-diphenyl tetrazolium bromide) reagent. Cells (5×10^3) were seeded in a 96-well culture plate and subsequently treated with respective agents at different concentrations as mentioned. Control cells were treated with 0.1% DMSO in culture medium. After treatment, the cells were incubated with 1 mg/ml of MTT reagent at 37° C. for 2-4 hours and then MTT was removed and 50 μL of DMSO was added, followed by colorimetric analysis using a multi-label plate reader at 560 nm (Victor3; PerkinElmer, Wellesley, Mass., USA).

[2] = system: HeLa cervical cancer cells; assay: MTT viability assay, HeLa; format: cell-based; conditions: 20 μM; 24 h; FIG. 3A
Excerpt: The current inventors' previous studies have indicated cancer cell growth inhibitory properties of CFMs in particular CFM-4 and CFM-5 [Puliyappadamba et al.]. […] J. Biomed. Nanotechnol. 2015; 11:1608-1627]. […] J. Biomed. Nanotechnol. 2015; 11:1608-1627]. On the basis of these findings, it was speculated that solubility and/or potency of the CFM-4 scaffold could be improved for its utility as a novel anti-TNBC molecule. To address this possibility, twelve (12) additional analogs of CFM-4 (Table 2) were synthesized using medicinal chemistry based structure activity relationship (SAR) studies. Each of the analog was suspended in DMSO, and their potency was evaluated in cell culture studies utilizing HeLa cervical cancer, MDA-MB-468 TNBC, and H2461 malignant pleural mesothelioma (MPM) cells by MTT based assays. […] Moreover, a 10 μM dose of CFM-4 inhibited MDA-MB-231 and MDA-MB-468 viabilities by ˜30% and 45%, respectively.

TNBC cells = assay: MTT viability assay, parental TNBC cells (lines not singled out); format: cell-based
Description: as §2

HUVECs = assay: in vitro tubule formation (angiogenesis) assay; format: cell-based, human; conditions: 12 hours; FIG. 11A
Description: The growth of tubules was monitored over a period of 12 hours. The cells growth in the scratch assay was recorded by photography. Representative photomicrographs of control and treated cells are presented.
It was next investigated whether CFM-4.16 inhibited TNBC cell migration and growth as colonies in soft agar and 3-dimensional cultures in vitro. In addition, an in vitro tubule formation assay was conducted to determine anti-angiogenic properties of CFM-4.16. […] Moreover, treatments with CFM-4 or CFM-4.16 prevented the parental as well as drug (ADR- or cisplatin-) resistant TNBC sublines and the parental and Herceptin-resistant, Her-2-positive SKBR-3 cells from growing in the areas of wound caused by a scratch (FIGS. 11B, 11C, 12A, 12B, 13A, and 13B).

solubility observations = format: physicochemical
[3] = system: parental and drug-resistant TNBC and SKBR-3 cells; assay: scratch/wound healing cell migration assay; format: cell-based; conditions: FIGS. 11B, 11C, 12A, 12B, 13A, 13B
Description: The TNBC cells migration in the absence or presence of CFMs was measured by the “scratch/wound healing” assay. Cells were seeded in a 6-well plate (˜10,000 cells/well), and when attached, a scratch was created in the cell monolayer using sterile pipette tip. The cells were then allowed to continue growing in the absence (Control) or presence of noted dose of each of the agents for indicated time periods. The cells were photographed at the beginning and at regular intervals during the treatment period, and the images from control cells were compared with the treated cells to determine the migration of the cells essentially as described before [Liang C C, Park A Y, Guan J L In vitro scratch assay: a convenient and inexpensive method for analysis of cell migration in vitro. Nat Protoc. 2007; 2:329-33]. The photomicrographs of the cells were recorded under different magnifications utilizing Zeiss microscope with attached 35 mm camera.

[4] = system: Adriamycin-resistant (ADR-R) MDA-MB-468 sublines; assay: MTT viability assay, ADR-resistant MDA-MB-468 sublines; format: cell-based, human; conditions: ADR-resistant MDA-MB-468 subline 1; FIG. 5E
Description: (§1) Human TNBC MDA-MB-468 and MDA-MB-231, and mouse TNBC 4T1 cells were cultured in the chronic presence (>10 months) of Doxorubicin. The parental, wild-type cells were initially treated with 200 nM Doxorubicin for 2-3 weeks, followed by escalation to 400 nM, 1 μM, and 2 μM doses over a period of 3-4 weeks for each dose till resistance developed and the cells became well adapted to growth in […] of Doxorubicin for their routine culture. In the case of Cisplatin however, the human TNBC MDA-MB-468 and MDA-MB-231 were initially cultured in continuous presence of 1 μM Cisplatin for 3-4 weeks, and the dose was escalated to 1.5 μM and 3 μM over periods of 3-4 weeks for each dose till resistance developed and cells became adapted to routine culture in 3 μM dose. Subsequent, routine maintenance of the resistant cells in the presence of the respective drug was continued and multiple, resistant sublines for each of the TNBC cells were isolated and characterized for their growth inhibitory (GI)50 dose of respective therapeutic by the MTT-based viability assays as below.

[5] = system: parental and drug-resistant TNBC and SKBR-3 cells; assay: soft-agar clonogenic assay; format: cell-based; conditions: 10 μM; FIGS. 11D, 12C, 12D, 13C
Description: A soft-agar sandwich assay was performed. Cells were sandwiched between 0.6% and 0.3% agarose in DMEM medium containing 5% FBS in a six-well chamber (500 cells/chamber), and treated with buffer (Control), or respective agent for noted time and dose at 37° C. humidified CO2 incubator. The colonies from multiple random fields were counted, compared to control and photographed essentially as described before [Jamal S, Cheryan V T, Muthu M, Munie S, Levi E, Ashour A E, Pass H I, Wali A, Singh M, Rishi A K. CARP-1 functional mimetics are a novel class of small molecule inhibitors of malignant pleural mesothelioma cells. PLos One. 2014; 9:e891; Ashour A E, Jamal S, Cheryan V T, Muthu M, Zoheir K M A, Alafeefy A M, Abd-allah A R, Levi E, Tarca A L, Polin L A, Rishi A K. CARP-1 functional mimetics: A novel class of small molecule inhibitors of medulloblastoma cell growth. PLoS One. 2013; 8:e66733; Zhang L, Levi E, Majumder P, Yu Y, Aboukameel A, Du J, Xu H, Mohammad R M, Hatfield J S, Wali A, Adsay V, Majumdar A P N, Rishi A K. Transactivator of transcription tagged cell cycle and apoptosis regulatory protein-1 peptides suppress growth of human breast cancer cells in vitro and in vivo. Mol Cancer Ther. 2007; 6:1661-1672].

[6] = system: MDA-MB-231 TNBC cells, wild type; assay: MTT viability assay, parental MDA-MB-231; format: cell-based, human
Description: as §2

[7] = system: Src, MET, and STAT3 kinases in TNBC cells; assay: Western blot, oncogenic tyrosine kinases; format: cell-based; conditions: parental and drug-resistant human and murine TNBC cells
Description: For protein expression analysis, Western blot (WB) experiments were performed according to the standard procedures. The cells were either untreated or treated with various agents either alone or in combinations as indicated. Following treatment durations, the cells were lysed in cell lysis (10×) buffer (#9803; cell signaling) containing 0.1% of protease and phosphatase inhibitor cocktail (Sigma) for 20 min at 4° C. The lysates were centrifuged at 14,000 rpm at 4° C. for 15-20 min to remove debris. Protein concentrations of whole cell lysates were determined using the Protein Assay Kit. Supernatant proteins, 50-100 μg from each sample, were separated by SDS-polyacrylamide gel electrophoresis (SDS-PAGE) and transferred to polyvinylidene difluoride (PVDF) membrane (Bio-rad, Hercules, Calif.) by standard procedures. […] The antibody-bound proteins were visualized by treatment with the chemiluminescence detection reagent according to manufacturer's instructions, followed by exposure to X-ray film (Denville Scientific Inc.). The same membranes were re-probed with the anti-β-actin or anti-α-tubulin antibody, which was used as an internal control for protein loading.

[8] = system: TNBC and non-small cell lung cancer cell-derived xenografts; conditions: SCID mice; cited from earlier work
[9] = system: Cisplatin-resistant (Cis-R) MDA-MB-231 sublines; assay: MTT viability assay, Cisplatin-resistant MDA-MB-231 sublines; format: cell-based, human
Description: as §1

[10] = system: Cisplatin-resistant (Cis-R) MDA-MB-468 sublines; assay: MTT viability assay, Cisplatin-resistant MDA-MB-468 sublines; format: cell-based, human
Description: as §1

[11] = system: parental and drug-resistant human TNBC cells; conditions: human, 12 h
Description: Control cells were treated with 0.1% DMSO in culture medium.

[12] = system: 4T1 TNBC cells, wild type; assay: MTT viability assay, parental 4T1; format: cell-based, mouse; conditions: FIG. 10; single agent
Description: as §2

Compound: O=C1N(Cc2cccc3ccccc23)c2ccccc2C12NN=C(c1ccccc1)S2 (stereo not shown) [CFM-4.6]
growth of TNBC and NSCLC cells (TNBC and NSCLC cells): inhibited growth

Compound: O=C1N(Cc2ccc3ccccc3c2)c2ccccc2C12NN=C(c1ccccc1)S2 (stereo not shown) [CFM-4.8]
inhibition of viability compared with CFM-4 [1]: greater inhibition of viability

Compound: COc1ccc2c(c1)C1(NN=C(c3ccccc3)S1)C(=O)N2Cc1ccccc1Cl (stereo not shown) [CFM-4.11]
inhibition of viability compared with CFM-4 [1]: greater inhibition of viability

Compound: COc1cccc(C2=NNC3(S2)C(=O)N(Cc2ccccc2Cl)c2ccccc23)c1 (stereo not shown) [CFM-4.17]
inhibition of viability compared with CFM-4 [2]: greater inhibition of viability
inhibition of viability compared with CFM-4 [1]: greater inhibition of viability
activity relative to parent compound CFM-4 or other analogs (TNBC cells; SAR screen of twelve analogs): superior

aqueous solubility (solubility observations): poor aqueous solubility
Compound: O=C1N(Cc2ccccc2Cl)c2ccccc2C12NN=C(c1ccccc1)S2 (stereo not shown) [CFM-4]
tubule formation by HUVECs compared with untreated control (HUVECs): disruption of tubule formation
growth of TNBC and NSCLC cells (TNBC and NSCLC cells): inhibited growth
growth of cells in the areas of wound caused by a scratch [3]: prevented
effect of siRNA-mediated depletion of CARP-1 on growth inhibition by the compound [4]: interfered with growth inhibition
colonies formed in soft agar [5]: significant reduction in size and number of colonies
inhibition / loss of cell viability ([6]; 10 μM dose): ~30%
inhibition / loss of cell viability ([1]; 10 μM dose): ~45%
activation and/or expression of MET and Src tyrosine kinases [7]: reduced activation and/or expression
xenograft growth inhibition / T/C, intravenous DMSO+cremophor preparation [8]: failed to inhibit growth; also recorded: lack therapeutic T/C values

Compound: N.N.[Cl][Pt][Cl] [Cisplatin]
GI50 ([6]; 72 h, Wild type): ~1.65 µM
GI50 ([1]; 72 h, Wild type): ~1.65 µM
GI50 ([9]; 72 h, Cis-R Clones 1-6, read-out: GI50): ≥ 150 µM
GI50 dose higher than wild-type, parental counterparts ([9]; cisplatin-resistant MDA-MB-231 vs parental): ≥ 90 fold
GI50 ([9]; read-out: GI50 dose, Cisplatin-resistant MDA-MB-231 sublines): ≥ 150 µM
GI50 (TNBC cells; 72 h treatment period, read-out: GI50 doses, both the parental TNBC cell lines): ~1.65 µM
GI50 (TNBC cells; parental cells, read-out: GI50 dose, parental cells): 1.65 µM
GI50 ([10]; 72 h, Cis-R Clone 1-2, read-out: GI50): ~6.6 µM
GI50 ([10]; 72 h, Cis-R Clone 3, read-out: GI50): ~12 µM
GI50 ([10]; 72 h, Cis-R Clones 4-6, read-out: GI50): ~15 µM
GI50 dose higher than wild-type, parental cells ([10]; cisplatin-resistant MDA-MB-468 vs parental): 4-9 fold
GI50 ([10]; read-out: GI50 dose, Cisplatin-resistant MDA-MB-468 sublines): 6 to 15 µM

Compound: Cc1nc(Nc2ncc(C(=O)Nc3c(C)cccc3Cl)s2)cc(N2CCN(CCO)CC2)n1 [Dasatinib]
loss of viability, single agent [11]: 20-40%
reduction / loss of viability [12]: ~60%

Compound: O=C1NC(=O)[C@@H](c2cn3c4c(cccc24)CCC3)[C@@H]1c1c[nH]c2ccccc12 [Tivatinib]
loss of viability, single agent [11]: 20-40%
